Read-outs that look alike come from different tables or passages of the source.
Experiments:
subtilisin = settings: Keller et al, Biochem. Biophys. Res. Com. 176, 1991, pp. 401-405; cited from earlier work
Alcalase = biological target: T1, Alcalase (Bacillus licheniformis, UniProt P00780); experiment: Determination of Ki, inhibition of Alcalase; format: biochemical
T1 construct: purchased Novo Nordisk A/S
T1 sequence (P00780 106-379): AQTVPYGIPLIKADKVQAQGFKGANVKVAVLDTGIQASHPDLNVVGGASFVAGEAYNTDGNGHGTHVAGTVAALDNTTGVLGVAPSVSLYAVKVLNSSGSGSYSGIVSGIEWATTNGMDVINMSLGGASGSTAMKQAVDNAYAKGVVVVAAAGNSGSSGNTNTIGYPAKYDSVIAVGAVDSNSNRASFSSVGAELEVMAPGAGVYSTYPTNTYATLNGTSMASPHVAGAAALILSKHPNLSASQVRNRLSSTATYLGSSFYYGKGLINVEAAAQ
Description: (§1) c) Determination of Ki : The inhibition constant Ki may be determined by using standard methods, for reference see Keller et al, Biochem. Biophys. Res. Com. 176, 1991, pp.401-405; J. Bieth in Bayer-Symposium "Proteinase Inhibitors", pp. 463-469, Springer-Verlag, 1974 and Lone Kierstein Hansen in "Determination of Specific Activities of Selected Deterrent Proteases using Protease Activity, Molecular Weights, Kinetic Parameters and Inhibition Kinetics", PhD-report, Novo Nordisk A/S and University of Copenhagen, 1991.
(§2) The inhibition constant Ki for the inhibition of Alcalase and Savinase was determined using standard methods under the following conditions:
(§3) Substrate: Succinyl-Alanine-Alanine-Proline-Phenylalanine-paranitro-anilide=SAAPFpNA (Sigma S-7388).
(§4) Buffer: 0.1M Tris-HCl pH 8.6; 25° C.
(§5) Enzyme concentration in assay:
(§6) The initial rate of substrate hydrolysis was determined at nine substrate concentrations in the range of 0.01 to 2 mM using a Cobas Fara automated spectrophotometer. The kinetic parameters Vmax and Km were determined using ENZFITTER (a non-linear regression data analysis program). kcat was calculated from the equation Vmax =kcat ×[Eo ]. The concentration of active enzyme [Eo ] was determined by active site titration using tight-binding protein proteinase inhibitors. The inhibition constant Ki was calculated from plots of Km /kcat as a function of the concentration of inhibitor. The inhibitors were assumed to be 100% pure and the molar concentrations were determined using weighing numbers and molecular weights.

Savinase = biological target: T2, Savinase (Lederbergia lenta, UniProt P29600); experiment: Determination of Ki, inhibition of Savinase; format: biochemical, Bacillus
T2 construct: purchased Novo Nordisk A/S
T2 sequence (P29600 1-269): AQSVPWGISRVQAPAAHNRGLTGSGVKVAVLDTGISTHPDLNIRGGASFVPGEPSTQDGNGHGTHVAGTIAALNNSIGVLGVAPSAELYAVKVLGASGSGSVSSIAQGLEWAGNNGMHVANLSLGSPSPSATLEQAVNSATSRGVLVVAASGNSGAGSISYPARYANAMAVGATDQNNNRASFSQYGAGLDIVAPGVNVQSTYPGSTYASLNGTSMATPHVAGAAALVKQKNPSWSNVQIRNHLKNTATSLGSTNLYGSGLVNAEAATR
Description: as §1, §2, §3, §4, §5, §6

proteolytic enzymes = settings: prior art; WO 92/19707 for acetamidobenzene boronic acid; cited from earlier work
[1] = substrate SAAPFpNA, 0.1M Tris-HCl pH 8.6, 25° C., Alcalase 1×10^-10 - 3×10^-10 M, read-out: Ki Alcalase
[2] = substrate SAAPFpNA, 0.1M Tris-HCl pH 8.6, 25° C., Savinase 1×10^-10 - 3×10^-10 M, read-out: Ki Savinase

| Ki (Alcalase; [1]) | Ki (Savinase; [2]) | Compound | other results |
| --- | --- | --- | --- |
| – | – | OB(O)c1cc(Cl)cc(Cl)c1 [3,5-dichlorophenylboronic acid] | capacity as subtilisin inhibitor (subtilisin): particularly effective |
| 500 µM | 600 µM | OB(O)c1ccc2cc(O)ccc2c1 [6-hydroxynaphthalene-2-boronic acid] | – |
| – | – | OB(O)O [Boric acid] | Ki (Alcalase): 30000 µM; Ki (Savinase): 20000 µM; inhibition of proteolytic enzymes (proteolytic enzymes): reversibly inhibit proteolytic enzymes |
| 500 µM | 900 µM | OB(O)c1cccc2ccccc12 [Naphthalene-1-boronic acid, Naphthalene-1-Boronic Acid] | – |
| 400 µM | 300 µM | OB(O)c1ccc2ccccc2c1 [Naphthalene-2-boronic acid, Naphthalene-2-Boronic Acid] | – |
| – | – | CB(O)O [methylboronic acid] | capacity as subtilisin inhibitor (subtilisin): poorest inhibitor |
| – | – | acetamidobenzene boronic acid | inhibition of proteolytic enzymes (proteolytic enzymes): superior inhibitor of proteolytic enzymes |
